Molecules are shown by their SMILES.

In test [1] the target is Eukaryotic translation initiation factor 2-alpha kinase 1 (Homo sapiens) (UniProt Q9BQI3). The note with it: at 10 µM.
The target of test [2] is Calcium/calmodulin-dependent protein kinase type II subunit beta (Homo sapiens) (UniProt Q13554). Briefly: Selectivity interaction (ActivX KiNativ screen (kinase selectivity in THP-1 cell lysates)) EUB0000639a CAMK2B. In kind it is subcellular. The note with it: lysate, at 1 µM.
In test [3] the target is Protein kinase C beta type (Homo sapiens, UniProt P05771). Briefly: Selectivity interaction (Kinase panel (Invitrogen)) EUB0000639a PRKCB. The note with it: at 200 nM.
Test [4] concerns the target T1, Beta-adrenergic receptor kinase 1 (Homo sapiens) (UniProt P25098).
T1 sequence (whole entry): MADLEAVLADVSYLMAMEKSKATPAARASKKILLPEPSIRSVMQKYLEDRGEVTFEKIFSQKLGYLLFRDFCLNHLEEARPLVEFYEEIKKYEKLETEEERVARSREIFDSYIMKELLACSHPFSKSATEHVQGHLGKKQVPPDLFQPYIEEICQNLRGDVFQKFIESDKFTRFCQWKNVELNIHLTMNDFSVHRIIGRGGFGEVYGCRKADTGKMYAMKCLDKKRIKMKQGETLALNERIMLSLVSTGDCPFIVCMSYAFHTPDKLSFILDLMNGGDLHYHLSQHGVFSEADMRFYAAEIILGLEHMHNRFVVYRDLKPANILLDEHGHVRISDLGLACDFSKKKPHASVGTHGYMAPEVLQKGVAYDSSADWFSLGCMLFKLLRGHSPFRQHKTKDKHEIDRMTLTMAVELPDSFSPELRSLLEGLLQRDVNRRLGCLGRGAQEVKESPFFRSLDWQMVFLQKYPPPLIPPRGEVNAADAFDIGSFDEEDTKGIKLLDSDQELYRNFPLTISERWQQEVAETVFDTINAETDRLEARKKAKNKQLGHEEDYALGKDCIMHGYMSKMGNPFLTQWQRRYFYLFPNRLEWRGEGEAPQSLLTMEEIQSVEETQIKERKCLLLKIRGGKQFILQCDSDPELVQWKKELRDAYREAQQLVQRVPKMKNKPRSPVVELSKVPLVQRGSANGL
Nature of the test: Selectivity interaction (ActivX KiNativ screen (kinase selectivity in THP-1 cell lysates)) EUB0000639a ADRBK1. The note with it: lysate. The format is subcellular.

The target in test [5] is Mitogen-activated protein kinase kinase kinase kinase 4 (Homo sapiens, UniProt O95819). Briefly: Selectivity interaction (KinomeScan (DiscoverX)) EUB0000045b MAP4K4.
Chain of Mitogen-activated protein kinase kinase kinase kinase 4 (O95819 2-1239 limits assumed): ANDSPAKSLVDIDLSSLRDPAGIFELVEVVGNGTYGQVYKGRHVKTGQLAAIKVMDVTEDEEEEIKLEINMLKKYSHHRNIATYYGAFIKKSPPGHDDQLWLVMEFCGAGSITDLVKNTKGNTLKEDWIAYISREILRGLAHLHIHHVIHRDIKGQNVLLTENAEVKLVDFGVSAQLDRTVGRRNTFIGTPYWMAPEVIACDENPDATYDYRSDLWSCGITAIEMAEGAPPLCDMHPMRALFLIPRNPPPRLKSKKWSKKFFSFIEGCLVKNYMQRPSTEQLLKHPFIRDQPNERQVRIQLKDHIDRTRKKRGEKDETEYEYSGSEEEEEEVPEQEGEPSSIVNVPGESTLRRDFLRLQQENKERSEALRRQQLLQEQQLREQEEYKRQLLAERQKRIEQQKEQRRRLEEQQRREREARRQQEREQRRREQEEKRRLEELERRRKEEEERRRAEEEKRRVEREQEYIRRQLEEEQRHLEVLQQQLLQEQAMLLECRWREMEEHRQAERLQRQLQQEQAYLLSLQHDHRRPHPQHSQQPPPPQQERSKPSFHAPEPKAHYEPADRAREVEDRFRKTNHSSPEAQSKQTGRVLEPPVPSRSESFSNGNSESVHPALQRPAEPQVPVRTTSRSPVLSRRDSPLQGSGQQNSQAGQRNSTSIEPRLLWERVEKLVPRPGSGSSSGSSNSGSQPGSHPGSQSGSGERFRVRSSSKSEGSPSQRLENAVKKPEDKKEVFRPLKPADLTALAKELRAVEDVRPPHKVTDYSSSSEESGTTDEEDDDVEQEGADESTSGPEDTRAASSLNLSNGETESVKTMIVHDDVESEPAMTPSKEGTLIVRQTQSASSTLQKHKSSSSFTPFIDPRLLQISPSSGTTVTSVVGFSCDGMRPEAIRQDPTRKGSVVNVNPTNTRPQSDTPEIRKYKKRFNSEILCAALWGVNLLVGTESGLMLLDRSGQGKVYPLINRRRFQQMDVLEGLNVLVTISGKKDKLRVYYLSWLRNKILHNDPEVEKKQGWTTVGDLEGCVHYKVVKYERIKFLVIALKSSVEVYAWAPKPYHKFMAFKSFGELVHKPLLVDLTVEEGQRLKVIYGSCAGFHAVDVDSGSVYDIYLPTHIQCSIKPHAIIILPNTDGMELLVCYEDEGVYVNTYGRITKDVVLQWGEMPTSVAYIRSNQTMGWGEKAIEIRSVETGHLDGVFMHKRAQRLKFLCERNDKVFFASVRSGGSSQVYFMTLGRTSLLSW
In test [6] the target is Serine/threonine-protein kinase 32C (Homo sapiens) (UniProt Q86UX6). Briefly: Selectivity interaction (KinomeScan (DiscoverX)) EUB0000045b STK32C.
Chain of Serine/threonine-protein kinase 32C (Homo sapiens) (Q86UX6 whole entry): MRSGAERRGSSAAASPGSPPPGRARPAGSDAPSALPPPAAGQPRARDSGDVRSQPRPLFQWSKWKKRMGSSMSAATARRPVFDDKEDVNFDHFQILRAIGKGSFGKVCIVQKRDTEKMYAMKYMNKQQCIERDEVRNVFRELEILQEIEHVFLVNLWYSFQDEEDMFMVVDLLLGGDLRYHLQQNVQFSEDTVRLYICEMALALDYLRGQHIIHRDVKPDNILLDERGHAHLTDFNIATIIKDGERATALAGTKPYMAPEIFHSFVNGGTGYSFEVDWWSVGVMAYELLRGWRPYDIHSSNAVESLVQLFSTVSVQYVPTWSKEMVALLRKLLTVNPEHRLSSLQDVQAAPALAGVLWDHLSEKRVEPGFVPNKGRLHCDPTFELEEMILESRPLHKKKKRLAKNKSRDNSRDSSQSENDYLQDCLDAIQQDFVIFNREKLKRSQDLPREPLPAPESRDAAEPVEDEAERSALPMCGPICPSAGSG
Test [7] addresses T2, Protein kinase C epsilon type (Homo sapiens) (UniProt Q02156).
T2 sequence (whole entry): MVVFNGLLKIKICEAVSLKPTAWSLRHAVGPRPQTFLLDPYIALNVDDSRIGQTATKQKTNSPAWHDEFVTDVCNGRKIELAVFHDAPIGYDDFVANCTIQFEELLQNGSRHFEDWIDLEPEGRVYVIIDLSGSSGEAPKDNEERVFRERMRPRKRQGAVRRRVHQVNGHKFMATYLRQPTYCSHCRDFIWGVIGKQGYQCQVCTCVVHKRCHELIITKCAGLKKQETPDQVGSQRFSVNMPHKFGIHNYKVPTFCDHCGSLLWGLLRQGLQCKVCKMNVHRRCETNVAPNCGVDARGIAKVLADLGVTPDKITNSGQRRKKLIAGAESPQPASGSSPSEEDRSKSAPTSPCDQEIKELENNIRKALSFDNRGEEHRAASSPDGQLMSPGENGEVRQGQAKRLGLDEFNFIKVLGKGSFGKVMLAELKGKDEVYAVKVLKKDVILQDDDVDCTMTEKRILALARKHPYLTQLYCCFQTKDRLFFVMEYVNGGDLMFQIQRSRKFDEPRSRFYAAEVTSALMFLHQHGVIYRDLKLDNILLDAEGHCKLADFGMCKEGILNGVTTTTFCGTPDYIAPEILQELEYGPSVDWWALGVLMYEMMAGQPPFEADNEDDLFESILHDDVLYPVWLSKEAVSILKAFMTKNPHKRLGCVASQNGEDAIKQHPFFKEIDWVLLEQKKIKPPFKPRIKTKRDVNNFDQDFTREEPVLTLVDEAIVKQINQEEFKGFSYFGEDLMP
Nature of the test: Selectivity interaction (KinomeScan (DiscoverX)) EUB0000311b PRKCE. The conditions noted are these: at 1 µM.

Test [8] concerns the target Calcium/calmodulin-dependent protein kinase type 1 (Homo sapiens) (UniProt Q14012). Briefly: Selectivity interaction (Kinase panel (literature)) EUB0001199aCl CAMK1. The conditions noted are these: at 1 µM.
Test [9] addresses Tyrosine-protein kinase JAK1 (Homo sapiens, UniProt P23458). Briefly: Selectivity interaction (ProQinase) EUB0000171b JAK1.
The target in test [10] is Serine/threonine-protein kinase VRK2 (Homo sapiens) (UniProt Q86Y07). Nature of the test: Selectivity interaction (ProQinase) EUB0000171b VRK2.
Chain of Serine/threonine-protein kinase VRK2 (Homo sapiens) (Q86Y07 whole entry): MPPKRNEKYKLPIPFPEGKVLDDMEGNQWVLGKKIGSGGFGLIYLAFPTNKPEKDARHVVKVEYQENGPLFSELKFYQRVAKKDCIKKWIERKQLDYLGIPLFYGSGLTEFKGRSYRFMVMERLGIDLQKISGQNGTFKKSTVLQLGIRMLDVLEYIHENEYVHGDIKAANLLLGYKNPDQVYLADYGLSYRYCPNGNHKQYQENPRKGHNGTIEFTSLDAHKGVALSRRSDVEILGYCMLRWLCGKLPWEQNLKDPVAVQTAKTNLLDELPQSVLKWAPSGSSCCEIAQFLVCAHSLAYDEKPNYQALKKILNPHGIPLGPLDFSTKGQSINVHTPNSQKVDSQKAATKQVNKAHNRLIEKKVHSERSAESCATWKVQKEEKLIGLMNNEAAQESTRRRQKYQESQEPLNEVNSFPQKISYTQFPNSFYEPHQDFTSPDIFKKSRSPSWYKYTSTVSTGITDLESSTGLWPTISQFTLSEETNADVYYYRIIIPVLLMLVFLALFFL
A further test concerns the target SRSF protein kinase 1 (Homo sapiens, UniProt Q96SB4). Briefly: Selectivity interaction (KinomeScan (DiscoverX)) EUB0001049a SRPK1. The note with it: at 1 µM.
The target of test [11] is T3, Phosphatidylinositol 5-phosphate 4-kinase type-2 gamma (Homo sapiens) (UniProt Q8TBX8).
T3 sequence (whole entry): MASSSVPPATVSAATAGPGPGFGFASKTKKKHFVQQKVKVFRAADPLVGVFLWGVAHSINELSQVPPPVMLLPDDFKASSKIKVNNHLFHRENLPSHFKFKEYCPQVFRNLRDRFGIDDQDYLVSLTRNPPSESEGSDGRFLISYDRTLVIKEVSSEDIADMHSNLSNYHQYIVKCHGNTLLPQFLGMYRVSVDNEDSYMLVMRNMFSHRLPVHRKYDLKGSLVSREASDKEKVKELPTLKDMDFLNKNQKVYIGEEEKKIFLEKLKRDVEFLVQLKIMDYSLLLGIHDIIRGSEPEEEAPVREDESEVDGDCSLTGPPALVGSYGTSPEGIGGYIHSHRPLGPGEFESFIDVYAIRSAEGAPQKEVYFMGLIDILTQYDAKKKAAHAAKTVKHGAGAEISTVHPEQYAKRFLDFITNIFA
Briefly: Selectivity interaction (KinomeScan (DiscoverX)) EUB0000655a PIP4K2C. The conditions noted are these: at 10 µM.

Chain of Tyrosine-protein kinase JAK1 (P23458 whole entry): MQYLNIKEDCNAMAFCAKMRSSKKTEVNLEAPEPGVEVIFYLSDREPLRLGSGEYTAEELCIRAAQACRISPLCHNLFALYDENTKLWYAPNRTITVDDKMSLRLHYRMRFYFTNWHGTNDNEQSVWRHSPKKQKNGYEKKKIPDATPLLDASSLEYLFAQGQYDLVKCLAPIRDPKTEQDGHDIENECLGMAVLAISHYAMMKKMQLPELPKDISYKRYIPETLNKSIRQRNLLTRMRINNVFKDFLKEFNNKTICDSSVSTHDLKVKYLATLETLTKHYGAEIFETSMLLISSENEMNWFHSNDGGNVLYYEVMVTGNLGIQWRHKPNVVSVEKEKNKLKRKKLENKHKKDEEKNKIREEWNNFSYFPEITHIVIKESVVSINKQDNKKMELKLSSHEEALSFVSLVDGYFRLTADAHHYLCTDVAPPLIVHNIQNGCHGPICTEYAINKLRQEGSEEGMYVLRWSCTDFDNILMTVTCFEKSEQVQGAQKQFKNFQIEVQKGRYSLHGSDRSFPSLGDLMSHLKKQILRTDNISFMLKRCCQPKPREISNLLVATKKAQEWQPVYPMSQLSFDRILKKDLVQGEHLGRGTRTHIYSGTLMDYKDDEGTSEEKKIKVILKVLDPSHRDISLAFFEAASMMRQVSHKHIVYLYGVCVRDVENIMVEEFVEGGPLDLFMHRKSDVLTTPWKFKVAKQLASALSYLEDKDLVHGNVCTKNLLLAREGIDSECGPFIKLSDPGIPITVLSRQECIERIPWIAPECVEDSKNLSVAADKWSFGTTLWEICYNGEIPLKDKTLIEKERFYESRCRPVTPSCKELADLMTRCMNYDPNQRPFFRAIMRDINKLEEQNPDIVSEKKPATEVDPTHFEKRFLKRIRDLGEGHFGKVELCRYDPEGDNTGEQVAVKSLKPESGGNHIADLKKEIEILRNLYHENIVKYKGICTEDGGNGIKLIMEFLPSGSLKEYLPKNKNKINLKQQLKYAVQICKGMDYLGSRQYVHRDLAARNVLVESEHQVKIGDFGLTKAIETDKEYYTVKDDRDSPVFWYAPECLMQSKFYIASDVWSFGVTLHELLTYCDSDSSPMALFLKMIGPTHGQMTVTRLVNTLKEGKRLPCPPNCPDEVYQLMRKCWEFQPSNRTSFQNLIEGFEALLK
Chain of Calcium/calmodulin-dependent protein kinase type 1 (Homo sapiens) (Q14012 whole entry, looked up): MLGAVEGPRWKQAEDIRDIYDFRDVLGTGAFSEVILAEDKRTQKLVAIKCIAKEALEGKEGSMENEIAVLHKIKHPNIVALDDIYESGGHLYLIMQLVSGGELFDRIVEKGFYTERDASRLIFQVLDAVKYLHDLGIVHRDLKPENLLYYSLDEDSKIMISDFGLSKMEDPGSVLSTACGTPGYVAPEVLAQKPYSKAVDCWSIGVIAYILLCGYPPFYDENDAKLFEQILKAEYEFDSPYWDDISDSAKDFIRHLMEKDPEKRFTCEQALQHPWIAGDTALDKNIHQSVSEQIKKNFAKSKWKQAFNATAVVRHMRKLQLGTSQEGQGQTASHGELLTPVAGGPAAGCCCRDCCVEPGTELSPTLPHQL
Chain of Eukaryotic translation initiation factor 2-alpha kinase 1 (Homo sapiens) (Q9BQI3 whole entry): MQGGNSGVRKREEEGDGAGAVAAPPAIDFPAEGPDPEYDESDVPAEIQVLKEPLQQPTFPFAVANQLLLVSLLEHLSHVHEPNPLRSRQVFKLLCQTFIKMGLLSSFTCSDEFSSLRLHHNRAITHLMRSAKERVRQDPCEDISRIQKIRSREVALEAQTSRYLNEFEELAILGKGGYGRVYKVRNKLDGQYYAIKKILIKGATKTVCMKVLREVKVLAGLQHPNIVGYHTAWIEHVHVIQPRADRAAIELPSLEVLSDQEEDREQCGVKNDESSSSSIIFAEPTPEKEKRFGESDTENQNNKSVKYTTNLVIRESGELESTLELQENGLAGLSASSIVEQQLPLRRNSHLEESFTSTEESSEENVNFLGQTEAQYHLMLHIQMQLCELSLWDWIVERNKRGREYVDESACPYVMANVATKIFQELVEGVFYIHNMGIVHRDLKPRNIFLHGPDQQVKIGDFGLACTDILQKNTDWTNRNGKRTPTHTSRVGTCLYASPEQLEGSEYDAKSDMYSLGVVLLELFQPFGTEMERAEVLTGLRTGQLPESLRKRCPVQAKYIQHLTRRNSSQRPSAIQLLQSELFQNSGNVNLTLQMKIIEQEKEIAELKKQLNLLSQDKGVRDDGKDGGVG
Chain of Calcium/calmodulin-dependent protein kinase type II subunit beta (Homo sapiens) (Q13554 whole entry): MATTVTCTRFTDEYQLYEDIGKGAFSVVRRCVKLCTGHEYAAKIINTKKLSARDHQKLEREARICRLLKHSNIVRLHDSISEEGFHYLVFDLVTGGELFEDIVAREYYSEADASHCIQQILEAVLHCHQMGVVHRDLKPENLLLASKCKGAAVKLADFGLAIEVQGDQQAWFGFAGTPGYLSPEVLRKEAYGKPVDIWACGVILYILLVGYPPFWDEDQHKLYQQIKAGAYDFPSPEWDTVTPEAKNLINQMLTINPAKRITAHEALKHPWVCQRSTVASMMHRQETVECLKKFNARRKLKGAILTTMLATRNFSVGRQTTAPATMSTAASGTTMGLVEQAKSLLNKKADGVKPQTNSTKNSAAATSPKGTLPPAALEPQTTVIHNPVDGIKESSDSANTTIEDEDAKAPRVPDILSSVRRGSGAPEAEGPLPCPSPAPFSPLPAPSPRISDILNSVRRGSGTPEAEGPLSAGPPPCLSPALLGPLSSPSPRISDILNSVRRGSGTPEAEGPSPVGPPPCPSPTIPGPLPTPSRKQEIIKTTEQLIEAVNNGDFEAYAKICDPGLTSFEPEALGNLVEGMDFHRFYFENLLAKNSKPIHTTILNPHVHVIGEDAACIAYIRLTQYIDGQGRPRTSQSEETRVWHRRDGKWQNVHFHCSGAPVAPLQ

Regarding `Cc1cc([C@@H](C)Nc2ccccc2C(=O)O)c2nc(N3CCOCC3)cc(=O)n2c1` [AZD-6482], in [1], the % of control amounted to 97%.
Consider `CC[C@@H]1[C@H](F)C(=O)N[C@@H]1COc1nccc2cc(C(N)=O)c(OC)cc12` [ZIMLOVISERTIB], for which the % of inhibition came out at 10% in test [2]; 6.06% in [3]; 5.6% in [4] (at 0.01 µM); 8% in [4] (at 0.04 µM); 9.7% in [4] (at 0.2 µM); 14.3% in [4] (at 1 µM). The % of inhibition in test [4] (at 5 µM) is 12.1%.
With `C=CC(=O)Nc1cc(-n2c(=O)ccc3cnc4ccc(-c5ccc(NS(C)(=O)=O)cc5)cc4c32)ccc1C`, the % of control in test [5] (at 1 µM), in [5] (at 10 µM), in [6] (at 1 µM) and in test [6] (at 10 µM) was 100% in each case.
For the compound `CCc1ccccc1C(=O)Nc1n[nH]c2c(C)c(F)c(C3C(C#N)=C(C)N(C)C(C)=C3C#N)cc12` [BAY-3827], the % of control in test [7] is 19%.
`CN1Cc2nccc(-c3cn(C)nc3-c3ccc(F)cc3)c2C1=O`: in [8], the % of inhibition is -9%.
Take `C=CC(=O)Nc1cccc(C(=O)Nc2ccc(Nc3cc(-c4[nH]c(SC)nc4C)ccn3)cc2)c1`: the % of control in [9] (at 1 µM) is 98%; in test [9] (at 5 µM), 96%; in test [10] (at 1 µM), 97%; in test [10] (at 5 µM), 83%.
For the compound `COc1cc(Nc2nc(C)cc(-c3cnn4nc(OC)ccc34)n2)cc(C(F)(F)F)c1`, the % of control at SRSF protein kinase 1 worked out at 96%.
With `CN(C)CCOc1ccc(-c2nc(-c3ccncc3)c(-c3ccc4c(c3)CC/C4=N\O)[nH]2)cc1`, the % of control in [11] is 100%.

The values above are taken from ChEMBL document CHEMBL5465560, “Selectivity Literature for EUbOPEN Chemogenomic Library” (2024).
